The nature of data set [1]: refractive index (Na D-line) (dimensionless). To be noted: 293.15 K; 101.33 kPa; Liquid; Standard Abbe refractometry.
The conditions of data set [2]: 101.33 kPa, Liquid.

Numbers after ± are expanded uncertainties.

The values that follow come from the NIST ThermoML archive (doi:10.1016/j.fluid.2005.05.018).

Regarding `CC(=O)OC(C)C` [1-methylethyl ethanoate], the refractive index (commonly a measure of how strongly the sample bends light) in data set [1] was found to be 1.3751 ± 0.0007. Besides, in data set [2] (298.15 K), the mass density – broadly, the mass of a sample divided by its volume – is on record as 866.4 ± 0.5 kg/m3.
In the same order, the values of `CCOC(=O)OCC` [diethyl carbonate] are 1.383 ± 0.0007 and 969.2 ± 0.3 kg/m3.
As for `CCO` [ethanol], the refractive index in data set [1] turned out to be 1.3592 ± 0.0007. Besides, in data set [2] (293.15 K), the mass density is given as 789.4 ± 0.6 kg/m3.
In the same order, the values of `CCCC(=O)OCC` [ethyl butanoate] are 1.3899 ± 0.0007 and 879 ± 0.5 kg/m3.
